From ChEMBL document CHEMBL4616684, “Potential Cancer Treatment by Agonists of the Stimulator of Interferon Genes” (ACS Med Chem Lett, 2020)

What was measured:
[1] = target: Stimulator of interferon genes protein (Homo sapiens, UniProt Q86WV6, G230A/R293Q/R71H); assay: Activation of full length human STNG R71H/G230A/R293Q mutant expressed in Trichoplusia ni cell membrane incubated for 60 mins followed by addition of [3H]cGAMP by competitive binding assay; format: cell membranes
[2] = target: Stimulator of interferon genes protein (Homo sapiens) (UniProt Q86WV6); assay: Agonist activity at STING in human THP1 cells assessed as assessed as increase in IFNbeta secretion at 30 uM measured after 5 hrs by AlphaLISA assay relative to 2'3'-cGAMP; format: cell-based; details: THP-1
Sequence of Stimulator of interferon genes protein (Homo sapiens) (Q86WV6 whole entry): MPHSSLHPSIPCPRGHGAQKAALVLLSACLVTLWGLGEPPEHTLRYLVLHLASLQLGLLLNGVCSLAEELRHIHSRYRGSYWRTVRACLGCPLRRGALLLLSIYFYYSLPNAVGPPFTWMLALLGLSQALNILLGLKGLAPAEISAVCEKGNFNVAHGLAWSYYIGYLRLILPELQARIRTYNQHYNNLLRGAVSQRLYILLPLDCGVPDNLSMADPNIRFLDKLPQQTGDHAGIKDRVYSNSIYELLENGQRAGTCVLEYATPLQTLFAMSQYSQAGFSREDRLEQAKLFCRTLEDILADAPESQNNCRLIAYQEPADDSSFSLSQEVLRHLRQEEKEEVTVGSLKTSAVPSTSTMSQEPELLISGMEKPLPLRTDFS

Sequence of Stimulator of interferon genes protein (Q86WV6 whole entry R71H/G230A/R293Q): as the sequence (Q86WV6 whole entry) above, with R71H, G230A, R293Q counted along it

COc1cc2sc(C(=O)C[C@H](C)C(=O)O)nc2nc1OC
EC50 [1]: 10.1 µM | Activity [2]: 14%

COc1cc2sc(C(=O)C[C@H](C)C(=O)O)nc2cc1Br
EC50 [1]: 10.6 µM | Activity [2]: 11%

CCC(CC(=O)c1cc2nc(OC)c(OC)cc2s1)C(=O)O (configuration not stated)
EC50 [1]: 1.75 µM | Activity [2]: 85%

COc1cc2cc(C(=O)CCC(=O)O)sc2nc1OC
EC50 [1]: 5.51 µM | Activity [2]: 146%

COc1cc2sc(C(=O)C3CC3C(=O)O)cc2nc1OC (configuration not stated)
EC50 [1]: 1.15 µM | Activity [2]: 100%

COc1cc2nc(C(=O)CCC(=O)O)sc2cc1OC
EC50 [1]: 13.3 µM | Activity [2]: 56%
